# According to patent US7276531B2, “G-lactam derivatives as prostaglandin agonists” (Applied Research Systems ARS Holding N.V., priority 2003, dated 2007):
# System: Dextran Sodium Sulfate-induced colitis
# Test: In vivo inhibition of Dextran Sodium Sulfate-induced colitis
# Settings: 0.1 mg/kg p.o. daily at days 3, 4, 5 and 6, DSS 4% mice
# From the text: The anti-inflammatory activity of compounds of the invention in colitis can be assayed as follows.
# Within 6-10 days after ingesting Dextran Sodium Sulfate (DSS) mice show sign of diarrhea, rectal bleeding and weight loss and colonic mucosal lesions include multiple erosion, ulceration, and marked inflammatory cell infiltration.
# Ulcerative colitis (UC) was induced in female mice (Balb/c, 20-22 g, Elevage Janvier) by Dextran Sodium Sulfate (DSS 4%) administered in drinking water. The mice had free access to DSS during 5 days.
# The compounds of the invention were solubilized in […] and administered by gavage at days 3, 4, 5 and 6 after the induction of the UC.
# The “treated group” wherein the animals have free access to DDS and are treated each day with compounds of the invention.
# The “Dextran 4%” group wherein the animals have free access to DDS 4% and 0.5% CMC/O0.25% tween (vehicle) and are not treated.
# • The body weight was determined daily. • The severity of the UC was assessed by a clinical score estimating the constituency of the stool (0=firm, 1=loose, 2=diarrhea) and the presence of blood (0=no blood, 1=occult blood, 2=gross rectal bleeding). • Seven days after the induction of the disease, the animals were sacrificed. The length and the weight of the colon were determined and the ratio Length/Weight/100 g body weight was calculated.
# The percentages of inhibition of weight loss, of clinical scores and of increase in the ratio colon length/weight, are calculated as follows: % inhibition=(1−(“value for treated group”−“value for control group”/”value for Dextran 4% group”−“value for control group))*100.
# The percentages of inhibition are calculated for each days 5, 6 and 7 for each parameter.
smiles,measurement,value
"CCCC/C(C)=C/C=C\[C@H]1CCC(=O)N1CCc1ccc(C(=O)O)cc1 [Example 3, 4-(2-{(2R)-2-[(1Z,3E)-4-methylocta-1,3-dienyl]-5-oxopyrrolidin-1-yl}ethyl)benzoic acid]","improved clinical score, increase compared to non-treated animals",40%
same,"increased colon weight/length, increase compared to non-treated animals",36%
same,inhibition of loss of body-weight compared to non-treated animals,39%
